Experimental data reported in patent US20240016784A1, “Y BOX BINDING PROTEIN 1 INHIBITORS” (Oregon Health & Science University, priority 2020, published 2024).

Tests used:
4T1 tumor xenograft = test: 4T1 tumor xenograft; assay type: in vivo, BALB/c mice; details: SU056 50 mg/kg, oral gavage
Method: Mice were subcutaneously injected with 4T1 cells and drug treatment started after three day of implantation. Mice were given either vehicle (40% PEG in saline) or SU056 (50 mg/kg) through oral route using oral gavage. FIG. 14A) Tumor volume (4T1) as a function of time. FIG. 14B) Tumor weight (4T1) at the end of the study. FIG. 14C) Body weight (4T1) as a function of time. FIG. 14D) Representative images of tumor (4T1) at the end of study. Combination of Paclitaxel and SU056 in 4T1 xenograft model. FIG. 14E) Tumor volume (4T1) as a function of time. FIG. 14F) Tumor weight (4T1) at the end of the study. FIG. 14G) Body weight (4T1) as a function of time.

YB-1 [1] = target: T1, YB-1 (Homo sapiens, UniProt P67809); test: Cellular Thermal Shift Assay (CETSA) in OVCAR8 cells; assay type: binding; set-up: endogenous in cells; host or cells: OVCAR8; details: SU056 2.5 μM, 1.5 h, read-out: increase in thermal stability (Tm shift) of YB-1
Method: The cellular thermal shift assay (CETSA) is based on the principle of protein-ligand interactions causing a shift in protein thermal stability (Savitski et al., 2014). When a protein interacts with ligand, its thermal stability increases, and this principle allows identification of which protein targets that are engaged by small molecules or drug candidates. We used this assay to identify protein targets of SU056. OVCAR8 cells were treated with SU056 (2.5 μM) for 1.5 h, and protein lysates were analyzed for a thermal shift. The heat maps represent the thermal stability of 804 soluble proteins in the presence and absence of SU056 compare with 37° C. (FIG. 3A).
Cellular Thermal Shift Assay (CETSA): The assay was performed as previously described (Savitski et al., 2014). Briefly, OVCAR8 cells were treated with vehicle (DMSO) or SU056 (2.5 μM) at 70-80% confluency for 1.5 h. Cells were harvested and washed with 1×PBS twice. Cells were pelleted and resuspended in PBS. 10 different PCR tubes with 1×10^6 cells/tube (in 100 μL PBS) were prepared for both the groups. Tubes were exposed to respective temperatures (37, 41, 44, 47, 50, 53, 56, 59, 63, 67° C.) for 3 min using a thermal cycler (Bio-Rad, CA, USA) followed by 2 min incubation at room temperature.

YB-1 [2] = target: T1, YB-1; test: Pulldown assay using biotinylated SU056; details: OVCAR8 cells and protein lysate
Method: Pulldown assay using biotinylated SU056: protein pulldown assay was performed using biotinylated SU056. […] Pulldown from cells: OVCAR8 cells were treated with 2.5 μM biotinylated SU056 for 1.5 h. Treated cells were collected and lysed using M-PER™ lysis solution (Thermo Scientific, #78503), supplemented with Halt protease and phosphatase inhibitor cocktail (Thermo Scientific, #78440). 300 μg protein was incubated with magnetic conjugate streptavidin bead (CST, #5947) at 4° C. on rocker overnight. […] Pulldown from cell lysates: OVCAR8 cells were collected and lysed using M-PER™ lysis solution (Thermo Scientific, #78503), supplemented with Halt protease and phosphatase inhibitor cocktail (Thermo Scientific, #78440). 1000 μg protein was incubated with 10 μM biotinylated SU056 at 4° C. on rocker overnight followed by overnight incubation with magnetic conjugate streptavidin bead (CST, #5947) at 4° C. After both the pulldown, biotin-streptavidin conjugates were pulldown and washed using magnetic rack. After three washing, beads were resuspended in 2×SDS sample buffer followed by heating at 90-100° C. for 5 min. Samples were resolved and probed with GBP1 (Abnova, #H00002633-PW1, 1:2000) and YB-1 (CST, #8475; 1:2000) as described above in immunoblotting. […]

[3] = target: T2, YB-1 in OVCAR4, OVCAR8, and SKOV3 cells (Homo sapiens, UniProt P67809); test: YB-1 inhibition time kinetics (YB-1 ELISA); assay type: cell-based; details: 5 μM treatment for 24 h; all three OC cells
T2 construct: endogenous in cells; host or cells: OVCAR4, OVCAR8, SKOV3
Method: Out of six targets identified, we selected proteins whose thermal shift is above 5° in the presence of SU056 for further study of protein expression after treatment. […] To study the in vivo effects of SU056 treatment, we analyzed ID8 tumor xenograft samples via immunohistochemistry (IHC). […] To identify the broader effects of SU056 on YB-1 and its downstream protein/activity in different ovarian cancer cell lines, we selected six different cell lines and treated them with SU056 (2.5 μM) for 12 h. Cells were analyzed for YB-1 and CD44 expression and Multidrug resistance 1 (MDR1, ABC pump mediated efflux). […] Finally, we tested the time kinetics and dose-dependent effects of SU056 on YB-1 expression. OVCAR4, OVCAR8, and SKOV3 cells were treated with SU056 (1, 2.5, and 5 μM) for 3, 6, 12, and 24 h and YB-1 expression was measured using YB-1 ELISA. […]
Total YB-1 sandwich ELISA: Total YB-1 protein level was analyzed using PathScan® Total YB1 Sandwich ELISA Kit (Cell Signaling, #12543) by following the manufacturer's protocol.
FIGS. 4A-4E: SU056 inhibits YB-1. […] FIG. 4C) Respective OC cells were treated with 2.5 μM SU056 for 12 h and YB-1 & CD44 expression and multidrug resistance activity was measured as described in the ‘method’ section. The % inhibition was calculated and compared to the control for the respective cell line. […]

OVCAR-8 and ID8 cells = test: Clonogenic assay; assay type: cell-based
Method: We tested the relationship between AzPs dose and the viability of human ovarian cancer cell lines and the ID8 murine ovarian cancer cell line.
Clonogenic assay: 300 suspended OC cells were plated in each well of 12 well plates (Corning-Costar, #3598) and incubated for 24 h for attachment. The media was replaced after 24 h with media containing a respective concentration of the test compound and incubated for 5-8 days until visible colonies appeared in vehicle-treated wells. Cells were then washed and fixed with 2% paraformaldehyde, followed by washing and staining with 0.5% Crystal violet for 1 h. Cells were de-stained using DI water and allowed to dry. Colonies were counted under the microscope at 100× magnification.
FIG. 1A) Lead optimization of SU093 to obtain SU056. FIG. 1B) IC50 values of SU093 and SU056 on various ovarian cancer cells. Clonogenic survival of OC cells treated with SU093 or SU056. […] FIG. 1C) Representative colony formation from respective wells. FIG. 1D) Number of colonies formed after SU093 and SU056 treatment. […] FIG. 1F) Cell cycle distribution of propidium iodide (PI)-stained OVCAR8, SKOV3, and ID8 cells. […] FIG. 1G) Effects of SU093 and SU056 on apoptotic cell death analyzed by Annexin-FITC staining. […] FIG. 1H) Cell migration assay.

T1 sequence (P67809 whole entry): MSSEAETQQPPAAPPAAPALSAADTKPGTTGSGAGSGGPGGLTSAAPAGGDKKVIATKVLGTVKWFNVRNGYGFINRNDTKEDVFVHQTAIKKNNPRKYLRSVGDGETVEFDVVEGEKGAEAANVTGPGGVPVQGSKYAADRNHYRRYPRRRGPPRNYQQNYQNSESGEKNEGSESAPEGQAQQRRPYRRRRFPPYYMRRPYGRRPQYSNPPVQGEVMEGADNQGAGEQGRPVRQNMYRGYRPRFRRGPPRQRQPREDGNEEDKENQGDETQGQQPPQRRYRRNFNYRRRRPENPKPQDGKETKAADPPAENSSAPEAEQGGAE
T2 sequence (P67809 whole entry): as above

## O=C1OCC2=C1C(c1cccc(F)c1)c1cc3c(cc1N2CCO)OCO3 (centres unmarked) [SU056, 9-(3-fluorophenyl)-5-(2-hydroxyethyl)-6,9-dihydro-[1,3]dioxolo[4,5-g]furo[3,4-b]quinolin-8(5H)-one]
4T1 tumor xenograft
  4T1 tumor xenograft growth: inhibit 4T1 tumor xenograft
YB-1 [1]
  ΔTm at 2.5 µM: 5.92 ± 0.86 °C
YB-1 [2]
  physical interaction with YB-1 (pulldown): physically interacts with YB-1
[3]
  YB-1 inhibition: 100%
OVCAR-8 and ID8 cells
  OC colony formation: decreased OC colony formation in a dose-dependent and significant manner
